From the NIST ThermoML archive (doi:10.1021/acs.jced.8b00554)
Numbers after ± are expanded uncertainties.

Assay: xn = mol fraction of the nth substance listed
Conditions: Liquid, Vibrating tube method

CCCCCCCCC [nonane] + CCCO
Conditions	mass density [kg/m3]
323.15 K, 12010 kPa, x2 = 0.8941	768.14 ± 4.9
323.15 K, 12020 kPa, x2 = 0.1231	706.6 ± 4.5
323.15 K, 12020 kPa, x2 = 0.2315	710.98 ± 4.6
323.15 K, 12020 kPa, x2 = 0.4272	720.79 ± 4.6
323.15 K, 13000 kPa, x2 = 0.1231	707.48 ± 4.5
323.15 K, 13000 kPa, x2 = 0.4272	721.68 ± 4.6
323.15 K, 13000 kPa, x2 = 0.7021	743.81 ± 4.8
323.15 K, 13010 kPa, x2 = 0.2315	711.85 ± 4.6
323.15 K, 13010 kPa, x2 = 0.8941	768.99 ± 4.9
323.15 K, 13020 kPa, x2 = 0.3229	715.95 ± 4.6
323.15 K, 14000 kPa, x2 = 0.1231	708.35 ± 4.5
323.15 K, 14000 kPa, x2 = 0.2315	712.73 ± 4.6
323.15 K, 14000 kPa, x2 = 0.8941	769.85 ± 4.9
323.15 K, 14010 kPa, x2 = 0.4272	722.55 ± 4.6
323.15 K, 14020 kPa, x2 = 0.3229	716.82 ± 4.6
323.15 K, 14020 kPa, x2 = 0.7021	744.68 ± 4.8
323.15 K, 15000 kPa, x2 = 0.1231	709.2 ± 4.5
323.15 K, 15000 kPa, x2 = 0.3229	717.67 ± 4.6
323.15 K, 15010 kPa, x2 = 0.7021	745.54 ± 4.8
323.15 K, 15010 kPa, x2 = 0.8941	770.68 ± 4.9
323.15 K, 15020 kPa, x2 = 0.2315	713.58 ± 4.6
323.15 K, 15020 kPa, x2 = 0.4272	723.42 ± 4.6
323.15 K, 16010 kPa, x2 = 0.1231	710.02 ± 4.5
323.15 K, 16010 kPa, x2 = 0.8941	771.51 ± 4.9
323.15 K, 16020 kPa, x2 = 0.2315	714.42 ± 4.6
323.15 K, 16020 kPa, x2 = 0.3229	718.52 ± 4.6
323.15 K, 16020 kPa, x2 = 0.4272	724.26 ± 4.6
323.15 K, 16020 kPa, x2 = 0.7021	746.38 ± 4.8
323.15 K, 17000 kPa, x2 = 0.2315	715.27 ± 4.6
323.15 K, 17000 kPa, x2 = 0.3229	719.35 ± 4.6
323.15 K, 17000 kPa, x2 = 0.8941	772.34 ± 5
323.15 K, 17010 kPa, x2 = 0.4272	725.1 ± 4.7
323.15 K, 17020 kPa, x2 = 0.1231	710.86 ± 4.6
323.15 K, 17020 kPa, x2 = 0.7021	747.22 ± 4.8
323.15 K, 18000 kPa, x2 = 0.1231	711.67 ± 4.6
323.15 K, 18010 kPa, x2 = 0.2315	716.08 ± 4.6
323.15 K, 18010 kPa, x2 = 0.3229	720.19 ± 4.6
323.15 K, 18010 kPa, x2 = 0.4272	725.91 ± 4.7
323.15 K, 18010 kPa, x2 = 0.7021	748.04 ± 4.8
323.15 K, 18010 kPa, x2 = 0.8941	773.16 ± 5
323.15 K, 19010 kPa, x2 = 0.1231	712.48 ± 4.6
323.15 K, 19010 kPa, x2 = 0.2315	716.87 ± 4.6
323.15 K, 19010 kPa, x2 = 0.3229	720.99 ± 4.6
323.15 K, 19010 kPa, x2 = 0.4272	726.74 ± 4.7
323.15 K, 19020 kPa, x2 = 0.7021	748.85 ± 4.8
323.15 K, 19020 kPa, x2 = 0.8941	773.95 ± 5
323.15 K, 20000 kPa, x2 = 0.4272	727.54 ± 4.7
323.15 K, 20010 kPa, x2 = 0.2315	717.66 ± 4.6
323.15 K, 20010 kPa, x2 = 0.8941	774.74 ± 5
323.15 K, 20020 kPa, x2 = 0.1231	713.24 ± 4.6
323.15 K, 20020 kPa, x2 = 0.3229	721.77 ± 4.6
323.15 K, 20020 kPa, x2 = 0.7021	749.67 ± 4.8
333.15 K, 100 kPa, x2 = 0.1231	686.98 ± 4.4
333.15 K, 100 kPa, x2 = 0.2315	690.52 ± 4.4
333.15 K, 100 kPa, x2 = 0.3229	694.34 ± 4.5
333.15 K, 100 kPa, x2 = 0.4272	699.84 ± 4.5
333.15 K, 100 kPa, x2 = 0.7021	721.88 ± 4.6
333.15 K, 100 kPa, x2 = 0.8941	747.76 ± 4.8
333.15 K, 1000 kPa, x2 = 0.8941	748.19 ± 4.8
333.15 K, 1010 kPa, x2 = 0.2315	691.2 ± 4.4
333.15 K, 1010 kPa, x2 = 0.3229	694.86 ± 4.5
333.15 K, 1010 kPa, x2 = 0.4272	700.34 ± 4.5
333.15 K, 1010 kPa, x2 = 0.7021	722.39 ± 4.6
333.15 K, 1020 kPa, x2 = 0.1231	687.08 ± 4.4
333.15 K, 2000 kPa, x2 = 0.3229	695.92 ± 4.5
333.15 K, 2000 kPa, x2 = 0.4272	701.38 ± 4.5
333.15 K, 2010 kPa, x2 = 0.1231	688.14 ± 4.4
333.15 K, 2010 kPa, x2 = 0.2315	692.25 ± 4.4
333.15 K, 2010 kPa, x2 = 0.8941	749.18 ± 4.8
333.15 K, 2020 kPa, x2 = 0.7021	723.42 ± 4.6
333.15 K, 3000 kPa, x2 = 0.1231	689.17 ± 4.4
333.15 K, 3000 kPa, x2 = 0.2315	693.28 ± 4.4
333.15 K, 3010 kPa, x2 = 0.4272	702.44 ± 4.5
333.15 K, 3010 kPa, x2 = 0.8941	750.17 ± 4.8
333.15 K, 3020 kPa, x2 = 0.3229	696.96 ± 4.5
333.15 K, 3020 kPa, x2 = 0.7021	724.44 ± 4.6
333.15 K, 4000 kPa, x2 = 0.7021	725.48 ± 4.7
333.15 K, 4010 kPa, x2 = 0.1231	690.19 ± 4.4
333.15 K, 4010 kPa, x2 = 0.2315	694.31 ± 4.5
333.15 K, 4010 kPa, x2 = 0.4272	703.48 ± 4.5
333.15 K, 4020 kPa, x2 = 0.3229	697.98 ± 4.5
333.15 K, 4020 kPa, x2 = 0.8941	751.17 ± 4.8
333.15 K, 5010 kPa, x2 = 0.2315	695.33 ± 4.5
333.15 K, 5010 kPa, x2 = 0.3229	699.01 ± 4.5
333.15 K, 5010 kPa, x2 = 0.4272	704.5 ± 4.5
333.15 K, 5010 kPa, x2 = 0.8941	752.16 ± 4.8
333.15 K, 5020 kPa, x2 = 0.1231	691.22 ± 4.4
333.15 K, 5020 kPa, x2 = 0.7021	726.49 ± 4.7
333.15 K, 6000 kPa, x2 = 0.7021	727.51 ± 4.7
333.15 K, 6000 kPa, x2 = 0.8941	753.15 ± 4.8
333.15 K, 6010 kPa, x2 = 0.2315	696.33 ± 4.5
333.15 K, 6010 kPa, x2 = 0.4272	705.51 ± 4.5
